One data set relates to RSV A2. Kind of data set: Inhibition of RSV A2 replication in A549 cells (qRT-PCR). Format: cell-based, respiratory syncytial virus. The procedure: A549, HEp-2 or NHBE cells were plated into 48 well-plate and incubated overnight. Upon reaching 80% cell confluence, cells were infected RSV A2 (at an MOI of 2 in A549, MOI of 0.5 in HEp-2, and MOI of 1 in NHBE cells) for 2 h after cells were incubated for 1 h with varying concentrations of drugs. Then, the virus-drug mixture was removed, and cells were cultured with drug-containing medium. At 48 h post inoculation, total RNAs were extracted from cells and then in reverse transcription using PrimeScript RT reagent Kit with gDNA Eraser (TaKaRa). For determining the viral copies, absolute quantitative RT-PCR was performed with TB Green® Premix Ex Taq^TM II (TaKaRa). RSV A2 F fragment was quantified with primers 5’-[…]-3’; and 5’-[…]-3’
Background: Real-time PCR tracks product formation cycle by cycle.

The nature of data set [1]: Pharmacokinetic study in Balb/c mice. Format: in vivo. Conditions: for Cmax: X1 in blood. The procedure: A total of nine Balb/c mice (N = 3 for each group, male) were divided into three groups, and fasted for 12 h before dosing. The three groups received oral dose of VV116 dissolved in 40%PEG400+10% Kolliphor® HS15+50% ultrapure water at 25 mg/kg, 50 mg/kg and 100 mg/kg, respectively. At 5 min, 0.25, 0.5, 1.0, 2.0, 4.0, 6.0, 8.0, and 24 h post-dosing, blood samples were collected from the jugular vein or the submandibular vein into EDTA-K2 tubes, and immediately mixed with acetonitrile (20 µL blood + 80 μL acetonitrile). The concentrations of analytes in the blood were analyzed by LC-MS/MS.

A short description of data set [2]: Tissue distribution study in Balb/c mice. Format: in vivo. The settings on record: VV116 oral 100 mg/kg. How it is done:
A total of thirty Balb/c mice were divided into five groups (3 animals/sex/group). VV116 was intragastrically administered at 100 mg/kg dissolved in 40%PEG400+10% Kolliphor® HS15+50%. At 0 (not administered), 0.25, 2, 6, and 24 h post-dosing, the five groups of mice were anesthetized, respectively. Blood samples were collected, and tissues including liver and lung were harvested. Tissue samples were individually homogenized, and blood samples were processed as above. The concentrations of X1 in liver, lung and blood were analyzed by LC-MS/MS.

The nature of data set [3]: Cellular toxicity in A549 cells (WST-8 cell viability). It counts as cell-based. Conditions: human; A549 cells, 48 h; read-out: CC50. How it is done: Cell viability was performed in 96-well plate with triplicate for each concentration. All drugs were diluted 2 times with 9 gradients starting at 500 micromores in maintenance medium (DMEM containing 2% FBS). After 48 h incubation, the supernatant was removed, and 10 μL WST-8 (2-(2-methoxy-4-(phenyl)-3-(4-(phenyl) to 5 (2, 4-sulpho benzene) -2 h-tetrazolium monosodium salt) in maintenance medium was added in medium. Plates were measured at 450 nm wavelength using spectrophotometer (BioTek) after 2 h incubation, and cell viability was calculated.
On the technique in general: Formazan colour is commonly taken as a measure of viable cells.

A short description of data set [4]: Toxicokinetics in SD rats. Format: in vivo. How it is done:
Groups of male and female SD rats (4 animals/sex/group) received repeated oral doses of VV116 (dissolved in 40%PEG400+10% Kolliphor® HS15+50% ultrapure water) at 100 (low), 200 (mild) and 500 mg/kg/d (high) for 14 days. At day 1 and day 14, blood samples were collected from the jugular vein into EDTA-K2 tubes at various time points post-dose. Plasma samples were obtained following general procedures and the concentrations of analytes in the samples were analyzed by LC-MS/MS.

Results on one compound are retold here after PMC9012943, “Oral remdesivir derivative VV116 is a potent inhibitor of respiratory syncytial virus with efficacy in mouse model” (Signal Transduction and Targeted Therapy, 2022).

Read-outs that look alike come from different tables or passages of the source. Where only a bound is given, the exact number is not on record here.

The term EC90 denotes the concentration at which the effect reaches the 90% level. Lower therefore signals greater potency. In general, EC50 refers to the concentration needed to bring the measured effect to its halfway point. A higher EC50 goes with a need for much substance. What is called Cmax is the maximum level reached in the sampled fluid or tissue. As usually defined, the half-life is the time in which the quantity being followed falls by half. As usually defined, the CC50 is the concentration at which the toxic effect on the cells reaches its halfway point. For the compound `[2H]c1cc([C@]2(C#N)O[C@H](CO)[C@@H](O)[C@H]2O)n2ncnc(N)c12` [X1], the SI in the data set on RSV A2 is reported as above 314. Also, the EC90 in the data set on RSV A2 (human respiratory syncytial virus, RSV A2) stood at 3.56 ± 0.63 µM. For the same compound, the concentration for a half-maximal effect (EC50) in the data set on RSV A2 (human respiratory syncytial virus, RSV A2 MOI 2, 48 h) worked out at 1.59 ± 0.49 µM. In data set [1] (Balb/c mice, following oral administration of VV116), the “Time for blood concentration of X1 to reach Cmax” value is reported as at most 0.5 h. In addition, the Cmax in data set [1] (male, mouse, whole blood, po, Balb/c mice, VV116 p.o. 25 mg/kg, read-out: Cmax) stood at 5360 ng/mL; in data set [1] (male, mouse, whole blood, Balb/c mice, VV116 oral 25 mg/kg, read-out: mean Cmax), 18.4 µM. Besides, the half-life in data set [1] (male, mouse, whole blood, X1, Balb/c mice, VV116 oral 25 to 100 mg/kg, read-out: elimination half-life) lay in the range of 2.3 to 4.25 h. Moreover, the “concentration of X1 in the lung relative to that in the liver” value in data set [2] is recorded as “about half”. Also, the CC50 at 48 h in data set [3] is above 500 µM. In addition, in data set [4] (both sexes, rat, plasma, po, X1, SD rats, VV116 p.o. 200 mg/kg, Total, Day 1), the AUC0-t turned out to be 85200 ng·h/mL. Further, in data set [4] (in vivo), the “AUC0–t of X1 at rat NOAEL (200 mg/kg) relative to that at 50 mg/kg in mice” value was ~ 3.5 folds.
